What all share (assay type): cell-based, human
One experiment deals with LNCaP cells. Kind of experiment: Cell cycle FACS analysis (PI staining). The following applies: 5 μM, 24 h, untreated control 37.1%. On the procedure:
Figure 4 Effect of NRs on cell cycle and apoptosis (A) LNCaP cells treated with 5 μM of NRs and other compounds for 24 h were stained with PI and analysed with a FACS calibur flow cytometer. (B) Total cell lysates from PCa cells treated with 20 μM of NRs were separated by SDS-PAGE and probed with cyclin D1 and B antibodies. […] (C) LNCaP cells were treated with indicated compounds (5 μmol/L) for 24 h and apoptosis induction was examined by oligonucleosomal fragmentation. Data are shown relative to vehicle treated control and the bars are means of three replicate determinations plus standard deviations. *, P< 0.01; ♣, P<0.05 compared with vehicle treated control. […] After 24 h the plates were analyzed for apoptotic and viable cells using acridine orange/ethidium bromide staining. […] (F) Apoptosis induction in LNCaP cells treated with 5 μmol/L of VNLG-147 and -152 in the presence or absence of ZVAD (5 μmol/L) was assessed by oligonucleosomal fragmentation after 24 h incubation. *, P< 0.05 compared with vehicle treated control. […]
Cells were harvested by trypsinization and then ﬁxed with 70% ethanol for 24 h at 4 °C. […] Stained cells were analyzed with a ﬂow cytometer using FlowJo software that exploits Watson algorithm to find out peak and S-phase populations from a univariate distribution curve.

In another experiment the test system is PC-3 cells. Kind of experiment: Boyden chamber matrigel invasion assay. As to conditions: PC-3, 5 μM, 24 h. On the procedure:
Figure 5 Anti-migratory and anti-invasive potential of NRs (A) Effect of NRs treatment (5 μmol/L) on PC-3 cell migration was assessed by wound healing assay after 24 h of wound formation. Representative photomicrographs of initial and final wounds are shown at 100x magnification. (B) Effect of NRs on PC-3 cell invasion was evaluated by transwell migration assay. PC-3 cells were seeded on matrigel coated boyden chamber and treated with NRs (5 μmol/L, 24 h). Photographs represent the extent of cell invasion in each of the treated cells. (C) Western blot analysis of the effect of NRs on the expression of cadherins in PC-3 cells. Cells were treated with indicated compound 20 μmol/L for 24 h.
The invasion assay in PC-3 cells was performed using Matrigel (BD Biosciences, Bedford, MA, USA)-coated transwell cell culture chambers (8 μm pore size, EMD Millipore, Temecula, CA, USA) as described previously (43). Briefly, PC-3 cells (5 × 10^4 cells/well) were cultured in the upper chamber of the transwell insert for 24 h in serum-free RPMI-1640 medium. The cells were then treated with 5 μM of indicated compounds for 24 h. RPMI-1640 medium containing 10% FBS was placed in the lower chamber. At the end of incubation, the top surface of the non-migrated cells were scraped gently with cotton swabs and the cells on the lower surface of the membrane (migrated cells) were fixed for 15 min with cold methanol and stained with crystal violet. Cells that had migrated to the bottom of the membrane were visualized and counted using an inverted microscope. For each replicate (n = 3), cells in three randomly selected fields were counted and averaged.

A further experiment concerns MR49F cells. Kind of experiment: MTT growth inhibition in Enzalutamide resistant MR49F cells. The following applies: Homo sapiens, MR49F; read-out: GI50 MR49F (Figure 2C). On the procedure: Figure 2 Effect of NRs on PCa cell growth and colony formation (A) Representative photographs of colonies formed in PCa cells at 14th day after initial treatment with specified compounds (5 μmol/L). Colonies were fixed with methanol and stained with crystal violet. (B) Data represents the mean ± S.E from three independent experiments. *, P< 0.05; ♣, P<0.01 compared to vehicle treated control. […] NRs that had promising inhibitory effect on cell proliferation on LNCaP cells were tested for their growth inhibitory effect in MR49F cells in comparison with Casodex and Abiraterone acetate by MTT assay.
Androgen-dependent (LNCaP), androgen-independent (PC-3) and castration resistant (C4-2B and 22Rv1) human prostate carcinoma cells were procured from American Type Culture Collection, Manassas, VA, USA and maintained in RPMI 1640 media (Gibco-Life Technologies, Grand Island, NY, USA) supplemented with 10% fetal bovine serum and 1% penicillin/streptomycin. […] Immortalized untransformed prostate epithelial cells, PWR1E from American Type Culture Collection were maintained in serum-free Keratinocyte media (Gibco) supplemented with epidermal growth factor and bovine pituitary extract. All cell lines were maintained in a 37 °C/5% CO2 humidified atmosphere.
Cell proliferation assay was performed as described previously. For cell growth experiment, cells were treated with the NRs for 7 days. MTT assay was performed at the end of the experiment. Calculations of combination indices were done using the Calcusyn program (Biosoft, Cambridge, United Kingdom). For colony formation assay, cells were plated 1000 per well in complete media and allowed to adhere for 24 h. The next day cells were treated with indicated compounds (5 μM). After 24 h compound containing media were removed, and cells were allowed to form colonies in complete media. Approximately 2 weeks later the colonies were fixed, stained with 0.5% crystal violet (sigma) for 30 min and counted manually. Results represent the mean ± standard deviation of three independent experiments.

The term GI50 denotes the concentration giving 50% growth inhibition.

Regarding `CC1=C(/C=C/C(C)=C/C=C/C(C)=C/C(=O)Nc2ccc(F)cc2)C(C)(C)CCC1n1ccnc1` (racemic) [VNLG-152], the “percentage of cells in G1 phase” value in the experiment with LNCaP cells was 74.6%. Also, in the experiment on PC-3 cells, the “percentage of cell invasion compared to control” value was 13. In the experiment with MR49F cells, the GI50 worked out at 3.89 µM.

Values taken from PMC4413647, “Simultaneous targeting of androgen receptor (AR) and MAPK-interacting kinases (MNKs) by novel retinamides inhibits growth of human prostate cancer cell lines” (Oncotarget, 2014).
